Assay results from paper PMC5011342, “A high throughput drug screening assay to identify compounds that promote oligodendrocyte differentiation using acutely dissociated and purified oligodendrocyte precursor cells” (BMC Research Notes, 2016).
Read-outs that look alike come from different tables or passages of the source.

Experiments:
expanded OPCs = assay: cells; settings: for viability at 0.1 µM / viability at 1 µM / viability at 10 µM: Rattus norvegicus, 72 h
Method: Having established a consistent assay for measuring OL differentiation in vitro, the next step was to utilize this assay to assess the ability of a wide array of compounds to promote OL differentiation. Prior to library screening, we first established the maximum non-toxic dose of each compound in the library. […] Therefore, we added each compound in the NIH clinical collection (NCC) library to OPCs at 10, 1, and 0.1 µM concentrations. Three days later, we assessed viability of the treated cells by measuring AlamarBlue fluorescence, a measure of cell viability (see “Methods” section). […] Appropriately, we established three sets of screening concentrations for library compounds: non-toxic compounds were tested at 10 and 2 µM, slightly toxic compounds (only toxic at 10 µM) were tested at 2 and 0.4 µM, and very toxic compounds were tested at 0.4 and 0.08 µM.
OPCs were expanded in vitro by seeding into PDL-coated tissue culture flasks at 1000–2000 cells/cm^2 in differentiation media supplemented with 10 ng/ml PDGF-AA. Proliferating OPCs were fed every 2–3 days and supplemented with 2–3× concentration of PDGF as needed to prevent OPC differentiation. After 6–7 days of proliferation, OPCs were harvested by trypsinization, plated into PDL-coated 96-well Falcon plates and centrifuged at 200×g to facilitate cell attachment, survival, and even distribution of cells. Expanded OPCs were seeded in differentiation media at 10,000 cells/well and incubated for 2 h at 37 °C, 10 % CO2 prior to addition of compounds. The NCC library was diluted and added to cells at 10, 1, and 0.1 µM; each concentration was tested in quadruplicate. As a positive control for the induction of toxicity, 5 ng/ml tunicamycin was added to 8 wells in each plate. Three days later, a 1:10 dilution of alamarBlue® (AB) was added to each well and cells were incubated 4 h at 37 °C, 10 % CO2. AB fluorescence was measured using a PerkinElmer Victor II fluorescence microplate reader (PerkinElmer, Waltham, MA) with 560 nm excitation/590 nm emission filters. For library screening, the highest concentration of each compound was adjusted to a minimally toxic concentration based on this toxicity data. Compounds were additionally tested at a second concentration that was 1/5th of the top concentration. The final concentration of DMSO in each well was 0.1 %.

[1] = system: acutely dissociated and purified rat OPCs; assay: Acute OL differentiation assay (MBP expression/cell, immunofluorescent image quantification); assay type: cell-based; settings: sheet "All OLga data"
Method: In order to identify compounds with the potential to promote OL differentiation in vivo and thereby enhance remyelination, we first wanted to establish an in vitro assay system that would closely mimic conditions in vivo. To do this, we started by using OPCs acutely isolated from postnatal day 6–7 (P6–7) rat brains by O4 immunopanning. […] OPCs were plated directly onto a biological substrate (PDL/laminin) in 96-well view plates at moderate density to allow for sufficient room to expand processes during differentiation. We plated cells in serum-free medium lacking OPC mitogens (no PDGF or FGF) to allow a basal level of OL differentiation to commence, and as a positive control added thyroid hormone (T3, 40 ng/ml) to accelerate differentiation (Fig. 1, flow scheme).
Fig. 1 Flow scheme of the acute OL differentiation assay. a Purified oligodendrocyte precursor cells (OPCs) were cultured from P7 rat cortex and plated into PDL/laminin pre-coated 96-well plates. b One hour later test compounds were added. c OPC cultures with compound were maintained in culture for an additional 4 days. d On the 5th day with compound, cells were fixed and immunostained with anti-MBP antibodies and DAPI. e Images were acquired with automated fluorescence microscopy and scored phenotypically for OL differentiation (see “Methods” section)
To quantify the extent of OL differentiation occurring in treatment conditions, we measured the overall amount of MBP expression/cell (see “Methods” section). Figure 2a depicts the mask created over MBP staining under which the MBP expression was quantified. […]
All animal work was carried out in strict accordance with the recommendations in the Guide for the Care and Use of Laboratory Animals of the National Institutes of Health. The protocol was approved by the Institutional Use and Care and Use Committee at the Molecular Medicine Research Institute (Sunnyvale, CA). Animals used for OPC isolation in these studies were euthanized by decapitation. OPCs from brains of P6-P7 Sprague–Dawley rat pups (Charles River, Wilmington, MA, USA) were enriched by immunopanning as previously described (Dugas et al. 2006). Briefly, single cell suspensions were obtained from papain-digested neonatal brains and depleted of mature glial cells by successive panning with RAN-2- and GalC-coated plates, followed by enrichment for OPCs using O4-coated plates. OPCs were plated in differentiation media (DMEM, 100 U/ml Penicillin/100 µg/ml streptomycin, 2 mM L-glutamine, 1 mM Na pyruvate, 5 µg/ml insulin, 5 µg/ml N-acetyl-L-cysteine, 1× trace elements B,10 ng/ml d-Biotin, 100 µg/ml BSA, 100 µg/ml apo-transferrin, 16 µg/ml putrescine, 60 ng/ml progesterone, 40 ng/ml sodium selenite 5 ng/ml forskolin, 10 ng/ml CNTF, 1 ng/ml NT-3).
Acutely enriched OPCs were plated in differentiation media at 5000 cells/well into PDL/laminin coated 96-well view plates and centrifuged at 200×g to facilitate cell attachment, survival, and even distribution of OPCs. OPCs were pre-incubated for 1–2 h at 37 °C in 10 % CO2, followed by the addition of test compounds in quadruplicate. Controls were added in eight replicate wells, negative control = 0.1 % DMSO; positive control = 40 ng/ml T3. The day of OPC plating was considered DIV0. On DIV4, cells were fixed, immunostained for myelin basic protein (MBP) expression, imaged and quantified as described below.

[2] = alamarBlue viability of expanded OPCs, compound at 0.1 µM, relative to DMSO control
[3] = alamarBlue viability of expanded OPCs, compound at 1 µM, relative to DMSO control
[4] = alamarBlue viability of expanded OPCs, compound at 10 µM, relative to DMSO control
[5] = Rattus norvegicus, test compound at 2 uM, NCC library screen, relative to quetiapine, read-out: 2 uM (% Quet)
[6] = Rattus norvegicus, test compound at 10 uM, NCC library screen, relative to quetiapine, read-out: 10 uM (% Quet)
[7] = read-out: 0.1 µM (% DMSO), alamarBlue viability, NCC library compound at 0.1 µM, sheet "All Tox data"
[8] = read-out: 1 µM (% DMSO), alamarBlue viability, NCC library compound at 1 µM, sheet "All Tox data"
[9] = read-out: 10 µM (% DMSO), alamarBlue viability, NCC library compound at 10 µM, sheet "All Tox data"
[10] = alamarBlue viability, NCC library compound at 0.1 µM, sheet "All Tox data"
[11] = alamarBlue viability, NCC library compound at 1 µM, sheet "All Tox data"
[12] = alamarBlue viability, NCC library compound at 10 µM, sheet "All Tox data"
[13] = Rattus norvegicus, 2 uM test compound, relative to quetiapine, read-out: OL differentiation, 2 uM (% Quet)
[14] = Rattus norvegicus, 10 uM test compound, relative to quetiapine, read-out: OL differentiation, 10 uM (% Quet)
[15] = Rattus norvegicus, test compound at 2 uM, MBP expression relative to quetiapine, NCC library screen, read-out: 2 uM (% Quet)
[16] = Rattus norvegicus, test compound at 10 uM, MBP expression relative to quetiapine, NCC library screen, read-out: 10 uM (% Quet)

## O=C(O)CCCc1ccccc1 [4-Phenylbutyric acid]
Expanded OPCs; [2]
  0.1 µM (% DMSO): 90.4 % DMSO
Expanded OPCs; [3]
  1 µM (% DMSO): 91.7 % DMSO
Expanded OPCs; [4]
  10 µM (% DMSO): 104.6 % DMSO
[1]; [5]
  activation at 2 µM: 9%
[1]; [6]
  activation at 10 µM: -4.1%

## O=c1[nH]cc(F)c(=O)[nH]1 [5-Fluorouracil]
Expanded OPCs; [2]
  0.1 µM (% DMSO): 80.9 % DMSO
Expanded OPCs; [3]
  1 µM (% DMSO): 26.6 % DMSO
Expanded OPCs; [4]
  10 µM (% DMSO): 12.2 % DMSO
[1]; Rattus norvegicus, test compound at 0.08 uM, NCC library screen, relative to quetiapine, read-out: 0.08 uM (% Quet)
  activation at 0.08 µM: -10.8%
[1]; Rattus norvegicus, test compound at 0.4 uM, NCC library screen, relative to quetiapine, read-out: 0.4 uM (% Quet)
  activation at 0.4 µM: -21.3%

## COc1ccc2[nH]cc(CCN)c2c1 [5-Methoxytryptamine]
Expanded OPCs; [7]
  viability at 0.1 µM: 82.9%
Expanded OPCs; [8]
  viability at 1 µM: 83.6%
Expanded OPCs; [9]
  viability at 10 µM: 78.8%
[1]; [5]
  activation at 2 µM: 2.6%
[1]; [6]
  activation at 10 µM: 4.2%

## CCCCCCCCCOc1ccc2[nH]cc(CCN)c2c1 [5-Nonyloxytryptamine]
Expanded OPCs; [10]
  0.1 µM (% DMSO): 59.8 % DMSO
Expanded OPCs; [11]
  1 µM (% DMSO): 9.3 % DMSO
Expanded OPCs; [12]
  10 µM (% DMSO): 8.5 % DMSO
[1]; test compound at 0.08 uM, NCC library screen, relative to quetiapine
  0.08 uM (% Quet): -24.6 % Quet
[1]; test compound at 0.4 uM, NCC library screen, relative to quetiapine
  0.4 uM (% Quet): -339.9 % Quet

## Fc1cncnc1 [5-fluoropyrimidine]
Expanded OPCs; [7]
  viability at 0.1 µM: 89.9%
Expanded OPCs; [8]
  viability at 1 µM: 85.6%
Expanded OPCs; [9]
  viability at 10 µM: 80.4%
[1]; [13]
  activation at 2 µM: -16.3%
[1]; [14]
  activation at 10 µM: -9.2%

## Nc1ccc2cn[nH]c2c1 [6-Aminoindazole]
Expanded OPCs; [10]
  0.1 µM (% DMSO): 85.3 % DMSO
Expanded OPCs; [11]
  1 µM (% DMSO): 87.5 % DMSO
Expanded OPCs; [12]
  10 µM (% DMSO): 73.6 % DMSO
[1]; test compound at 2 uM, NCC library screen, relative to quetiapine
  2 uM (% Quet): -23.3 % Quet
[1]; test compound at 10 uM, NCC library screen, relative to quetiapine
  10 uM (% Quet): -40.9 % Quet

## O=[N+]([O-])c1cccc2cn[nH]c12 [7-Nitroindazole]
Expanded OPCs; [7]
  viability at 0.1 µM: 84.2%
Expanded OPCs; [8]
  viability at 1 µM: 88.9%
Expanded OPCs; [9]
  viability at 10 µM: 89.1%
[1]; [5]
  activation at 2 µM: -7.1%
[1]; [6]
  activation at 10 µM: 5.7%

## CCCCC/C=C\C/C=C\C/C=C\C/C=C\CCCC(=O)Nc1ccc(O)cc1 [AM 404]
Expanded OPCs; alamarBlue viability of expanded OPCs, compound at 0.1 µM, sheet All Tox data
  0.1 µM (% DMSO): 87.9 % DMSO
Expanded OPCs; alamarBlue viability of expanded OPCs, compound at 1 µM, sheet All Tox data
  1 µM (% DMSO): 33.1 % DMSO
Expanded OPCs; alamarBlue viability of expanded OPCs, compound at 10 µM, sheet All Tox data
  10 µM (% DMSO): 11.4 % DMSO
[1]; 0.08 uM test compound, relative to quetiapine
  OL differentiation, 0.08 uM (% Quet): -17.8 % Quet
[1]; 0.4 uM test compound, relative to quetiapine
  OL differentiation, 0.4 uM (% Quet): -184.2 % Quet

## C[C@H]1O[C@H](O[C@H]2[C@H](O)[C@@H](O)[C@@H](O[C@H]3[C@H](O)[C@@H](O)C(O)O[C@@H]3CO)O[C@@H]2CO)[C@H](O)[C@@H](O)[C@@H]1N[C@H]1C=C(CO)[C@@H](O)[C@H](O)[C@H]1O (stereo partly drawn) [Acarbose]
Expanded OPCs; read-out: 0.1 µM (% DMSO), alamarBlue viability of expanded OPCs, compound at 0.1 µM, sheet All Tox data
  viability at 0.1 µM: 88.8%
Expanded OPCs; read-out: 1 µM (% DMSO), alamarBlue viability of expanded OPCs, compound at 1 µM, sheet All Tox data
  viability at 1 µM: 92%
Expanded OPCs; read-out: 10 µM (% DMSO), alamarBlue viability of expanded OPCs, compound at 10 µM, sheet All Tox data
  viability at 10 µM: 93.2%
[1]; [13]
  activation at 2 µM: 17.5%
[1]; [14]
  activation at 10 µM: -6.6%

## CCCC(=O)Nc1ccc(OCC(O)CNC(C)C)c(C(C)=O)c1 (stereo not drawn) [Acebutolol]
Expanded OPCs; [2]
  0.1 µM (% DMSO): 94.3 % DMSO
Expanded OPCs; [3]
  1 µM (% DMSO): 111.2 % DMSO
Expanded OPCs; [4]
  10 µM (% DMSO): 112.7 % DMSO
[1]; [15]
  activation at 2 µM: 7.8%
[1]; [16]
  activation at 10 µM: -5.4%

## CC(=O)Nc1nnc(S(N)(=O)=O)s1 [Acetazolamide]
Expanded OPCs; [2]
  0.1 µM (% DMSO): 89.2 % DMSO
Expanded OPCs; [3]
  1 µM (% DMSO): 90.6 % DMSO
Expanded OPCs; [4]
  10 µM (% DMSO): 87.5 % DMSO
[1]; [5]
  activation at 2 µM: -8.7%
[1]; [6]
  activation at 10 µM: -43.8%

## CC(=O)OCC[N+](C)(C)C [Acetylcholine]
Expanded OPCs; [2]
  0.1 µM (% DMSO): 87.6 % DMSO
Expanded OPCs; [3]
  1 µM (% DMSO): 92.6 % DMSO
Expanded OPCs; [4]
  10 µM (% DMSO): 87.0 % DMSO
[1]; [15]
  activation at 2 µM: -4.4%
[1]; [16]
  activation at 10 µM: -7.7%
